Results reported in patent US11246856B2, “Methods of treating resistant cancers” (University of Maryland, Baltimore, priority 2017, dated 2022).
Entries after “also recorded” stand apart in the source; their conditions may differ.

How the values were obtained:
Format in all cases: cell-based
A375-PLX-R cells [1] = experiment: Cell proliferation, PLX4032-resistant A375-PLX-R cells; conditions: FIG. 1A
Protocol: A375, SK-MEL-5 and SK-MEL-28 cell lines were maintained in DMEM growth medium containing 10% FCS, 2 mM L-glutamine and 1 mM sodium pyruvate. The WM3248 cells were maintained in MCDB153:L15 (4:1) growth medium containing 2% FCS, […] insulin and 1.68 mM CaCl2. To create PLX4032-resistant cells, A375, SK-MEL-5, SK-MEL-28 and WM3248 cells were treated with […] in monolayer culture in growth medium for several weeks. The surviving cells were then expanded and cultured in increasing doses of PLX4032 up to […]. The resulting PLX4032-resistant cells, designated PLX4032-resistant (e.g., A375-PLX-R) were routinely maintained in the presence of […] PLX4032.

[2] = system: tumor-derived A375-PLX-R cells; experiment: Matrigel invasion of tumor-derived A375-PLX-R cells; conditions: resistant (A375-PLX-R) cells, invasion assayed without drug, FIG. 6G
Protocol: (§1) Tumors were initiated and treated with PLX4032 or verteporfin as above. At 4 weeks, the tumors were removed, mechanically dissociated and dispersed as single cell suspensions with 0.25% trypsin for 10 min and plated as monolayer cultures. After 24 h, the cells were harvested and seeded at 25,000 cells/well atop a 0.1 ml matrigel layer in Millicell (1 cm diameter, […]) chambers in the presence of a serum gradient (38). After 18 h, the membranes were stained with DAPI and the nuclei of migrated cells were visualized by inverted fluorescence microscopy (38).

A375 cells [3] = experiment: Immunofluorescence of YAP1/TAZ subcellular distribution; conditions: control versus PLX4032-treated A375 cells, FIG. 2D
Protocol: (§2) Equivalent amounts of protein were electrophoresed on denaturing and reducing 10% polyacrylamide gels and transferred to nitrocellulose membrane. The membrane was blocked by 5% nonfat dry milk for one hour and incubated with 1:1000 primary antibody in 5% nonfat dry milk. Blots were rinsed in TBS-T and then incubated with secondary antibodies (1:5000) for 2 h. Secondary antibody binding was visualized using ECL Prime (Amersham) chemiluminescence detection technology. For immunostaining, cells were harvested, suspended in growth medium, and plated in LAB-TEK II Chamber Slide System. After 24 h, the cells were fixed with 4% paraformaldehyde at room temperature for 15 min, washed three with phosphate-buffered saline, in 0.1% Triton X-100 for 15 min, washed with phosphate-buffered saline, and blocked for 1 h with phosphate-buffered saline containing 7.5% fetal calf serum. Primary antibodies were added, and the slides incubated overnight at 4° C. Cells were then washed three times with phosphate-buffered saline and incubated 1 h with the appropriate Alexa Flour fluorescence probe-conjugated secondary antibody. After additional washing, the cells were stained with DAPI for 10 min prior to imaging.

tumor-derived A375 cells = experiment: Matrigel invasion of tumor-derived A375 cells; conditions: sensitive (A375) cells, invasion assayed without drug, FIG. 6G
Protocol: as §1

A375 cells [4] = experiment: Immunoblot of signaling, cell cycle and apoptosis markers in A375 cells
Protocol: as §2

A375-PLX-R cells [5] = experiment: Immunoblot of ERK1/2 activity in A375-PLX-R cells; conditions: TEAD intact versus knockdown, FIG. 3F
Protocol: as §2

pre-formed spheroids = experiment: Treatment of pre-formed spheroids
Protocol: Cancer cells were maintained under attached conditions in growth media containing DMEM (Invitrogen, Frederick, Md.) supplemented with 4.5 mg/ml D-glucose, […] L-glutamine, 100 mg/ml sodium pyruvate, and 5% fetal calf serum. For spheroid culture, monolayer cultures were dissociated with 0.25% trypsin and the cells were collected by centrifugation, and resuspended in spheroid media, consisting of DMEM/F12 (1:1) (DMT-10-090-CV, Mediatech INC, Manassa, Va.) containing 2% B27 serum-free supplement (17504-044, Invitrogen, Frederick, Md.) 20 ng/ml EGF (E4269, Sigma, St. Louis), 0.4% bovine serum albumin (B4287, Sigma) and […] insulin (19278 Sigma, St. Louis, Mo.) and plated at 40,000 cells per 9.6 cm^2 well in six well ultra-low attachment Costar cluster dishes (4371, Corning, Tewksbury, Mass.). Parallel cultures were plated in spheroid media on conventional plastic dishes for growth as monolayer cultures.
Identification of agents that suppress survival of PLX4032-resistant cells, or re-sensitize these cells to PLX4032, is an important goal. […] YAP1 interacts with TEAD transcription factors to drive gene expression (6,28) and a small molecular inhibitor called verteporfin has been reported to disrupt YAP1/TEAD interaction by binding to YAP1 and altering its structure (6,16). The impact of verteporfin treatment on spheroid formation and matrigel invasion in PLX4032 sensitive and resistant MCS cells was examined.

[6] = system: YAP1, TAZ and TEAD in A375 and A375-PLX-R cells; experiment: YAP1/TAZ/TEAD mRNA and protein level after verteporfin, monolayer cells
Protocol: as §2
Total RNA was isolated using Illustra RNAspin mini kit (GE Healthcare), and 1 μg of RNA was used for cDNA synthesis. Gene expression was measured by real time PCR using Light Cycler 480 SYBR Green I Master Mix (04-707 516 001) from Roche Diagnostics (Indianapolis, Ind.). The signals were normalized using cyclophilin A control primers. The gene specific primers used for detection of mRNA levels were as follows: cyclophilin A (forward, 5′-[…] (SEQ ID NO: 3); reverse, 5′-[…] (SEQ ID NO: 4)), TAZ (forward, 5′-GTATCCCAGCCAATC TCG (SEQ ID NO: 5); reverse, 5′-TTCTGAGTGGGGTGGTTC (SEQ ID NO: 6)) and YAP1 (forward, 5′-[…] (SEQ ID NO: 7); reverse, 5′-[…], (SEQ ID NO: 8)) (11).
To understand the mechanism of verteporfin action, monolayer A375 and A375-PLX-R cells were treated with […] verteporfin for 24 h and the impact on YAP1/TAZ mRNA and protein level was monitored. […] The proteasome is known to regulate YAP1/TAZ level (29,30) and so whether the proteasome was responsible for the observed reductions was examined.

Row | Compound | proliferation of A375-PLX-R cells (A375-PLX-R cells [1]) | matrigel invasion of tumor-derived cells after in vivo treatment [2] | YAP1 intracellular distribution (A375 cells [3]) | matrigel invasion of tumor-derived cells after in vivo treatment (tumor-derived A375 cells) | apoptosis (cleaved PARP accumulation, procaspase 8 and 9 levels) (A375 cells [4]) | cyclin B and cyclin A level (A375 cells [4]; FIGS. 3A-3B) | p21Cip1 and p27 level (A375 cells [4]; FIGS. 3A-3B) | ERK1/2 signaling / phosphorylation (A375 cells [4]; FIGS. 3A-3B, 3F) | ERK1/2 activity (A375-PLX-R cells [5]) | reduction of spheroid number/integrity (pre-formed spheroids; 20 μM verteporfin, 3-day treatment, FIG. 4C legend) | pre-formed spheroids after prolonged treatment (pre-formed spheroids; prolonged verteporfin treatment (not shown)) | reduction of spheroid number/integrity (pre-formed spheroids; spheroids formed for 8 d, 3D treatment, FIG. 4C) | level of YAP1 or TAZ mRNA ([6]; 1 mM verteporfin, 24 h, monolayer, FIG. 4F) | YAP1 and TAZ protein levels ([6]; 1 mM verteporfin, 24 h, monolayer, FIG. 4G) | TEAD transcription factor levels ([6]; verteporfin treatment, FIG. 4H)
1 | CCCS(=O)(=O)Nc1ccc(F)c(C(=O)c2c[nH]c3ncc(-c4ccc(Cl)cc4)cc23)c1F [PLX4032] | not suppressed | does not suppress | no major change | does not suppress | enhances | reduced | increased | suppressed; also recorded: reduced | only reduced in A375-PLX-R cells following TEAD knockdown and PLX4032 treatment | – | – | – | – | – | –
2 | verteporfin | – | – | – | – | – | – | – | – | – | 30-50% | complete destruction | 30-50% | did not impact | reduced | reduced
